Test results from patent US4529733A, “Antihypertensive 3-furoyl-1,4-dihydropyridines” (Merrell Dow Pharmaceuticals Inc., priority 1983, dated 1985).

How the values were obtained:
[1] = test system: pentobarbitone-anesthetized rats; experiment: Anti-hypertensive effect in pentobarbitone-anesthetized rats; format: in vivo, rat; conditions: for Change in diastolic blood pressure / Change in heart rate: pentobarbitone-anesthetized rats
Method: In this test, rats, anesthetized with a 45 to 60 mg/kg dose (i.p.) of sodium pentabarbitone, receive the test compound by injection by means of an indwelling cannula in the femoral vein. Diastolic blood pressure is measured by an indwelling catheter in the femoral artery. Heart rate is also measured.

[2] = test system: conscious spontaneously hypertensive rats (stroke prone strain); experiment: Anti-hypertensive effect in conscious spontaneously hypertensive rats (stroke prone strain); format: in vivo, rat
Method: In this test, the test compound is injected in an indwelling cannula in the femoral vein and blood pressure is measured by an indwelling catheter in the femoral artery. Heart rate is also measured.

[3] = test system: K^+ -depolarized taenia preparations from guinea pig caecum; experiment: Inhibition of 45Ca++ uptake in K+-depolarized taenia preparations; format: cell-based; conditions: 0.1 and 1 μM; 20 minutes incubation
Method: In this procedure, strips of taenia are incubated in Ca^++ -free buffer (composition, mM: NaCl, 97; KCl, 40; glucose, 5.5, HEPES buffer, 10; pH 7.0) at 35° C. and gassed with oxygen. The preparations thus prepared are then incubated with the test compound for 20 minutes after which ^45 Ca^++ /Ca^++ is added (1 mM for 10 minutes). Extracellular Ca^++ is displaced with lanthanum (50 mM) at 0°-4° C.

[4] = target: T1, K^+ -depolarized taenia preparations from the guinea pig caecum (Cavia porcellus, UniProt O35505); experiment: Calcium antagonism in K+-depolarized taenia preparations (displacement of Ca++ concentration-response curves); format: cell-based; conditions: for Kb: calculated, against Ca++, read-out: pA2 (converted)
T1 construct: taenia preparations from the guinea pig caecum; from tissue; host or cells: guinea pig caecum, taenia (smooth muscle)
T1 sequence (O35505 whole entry): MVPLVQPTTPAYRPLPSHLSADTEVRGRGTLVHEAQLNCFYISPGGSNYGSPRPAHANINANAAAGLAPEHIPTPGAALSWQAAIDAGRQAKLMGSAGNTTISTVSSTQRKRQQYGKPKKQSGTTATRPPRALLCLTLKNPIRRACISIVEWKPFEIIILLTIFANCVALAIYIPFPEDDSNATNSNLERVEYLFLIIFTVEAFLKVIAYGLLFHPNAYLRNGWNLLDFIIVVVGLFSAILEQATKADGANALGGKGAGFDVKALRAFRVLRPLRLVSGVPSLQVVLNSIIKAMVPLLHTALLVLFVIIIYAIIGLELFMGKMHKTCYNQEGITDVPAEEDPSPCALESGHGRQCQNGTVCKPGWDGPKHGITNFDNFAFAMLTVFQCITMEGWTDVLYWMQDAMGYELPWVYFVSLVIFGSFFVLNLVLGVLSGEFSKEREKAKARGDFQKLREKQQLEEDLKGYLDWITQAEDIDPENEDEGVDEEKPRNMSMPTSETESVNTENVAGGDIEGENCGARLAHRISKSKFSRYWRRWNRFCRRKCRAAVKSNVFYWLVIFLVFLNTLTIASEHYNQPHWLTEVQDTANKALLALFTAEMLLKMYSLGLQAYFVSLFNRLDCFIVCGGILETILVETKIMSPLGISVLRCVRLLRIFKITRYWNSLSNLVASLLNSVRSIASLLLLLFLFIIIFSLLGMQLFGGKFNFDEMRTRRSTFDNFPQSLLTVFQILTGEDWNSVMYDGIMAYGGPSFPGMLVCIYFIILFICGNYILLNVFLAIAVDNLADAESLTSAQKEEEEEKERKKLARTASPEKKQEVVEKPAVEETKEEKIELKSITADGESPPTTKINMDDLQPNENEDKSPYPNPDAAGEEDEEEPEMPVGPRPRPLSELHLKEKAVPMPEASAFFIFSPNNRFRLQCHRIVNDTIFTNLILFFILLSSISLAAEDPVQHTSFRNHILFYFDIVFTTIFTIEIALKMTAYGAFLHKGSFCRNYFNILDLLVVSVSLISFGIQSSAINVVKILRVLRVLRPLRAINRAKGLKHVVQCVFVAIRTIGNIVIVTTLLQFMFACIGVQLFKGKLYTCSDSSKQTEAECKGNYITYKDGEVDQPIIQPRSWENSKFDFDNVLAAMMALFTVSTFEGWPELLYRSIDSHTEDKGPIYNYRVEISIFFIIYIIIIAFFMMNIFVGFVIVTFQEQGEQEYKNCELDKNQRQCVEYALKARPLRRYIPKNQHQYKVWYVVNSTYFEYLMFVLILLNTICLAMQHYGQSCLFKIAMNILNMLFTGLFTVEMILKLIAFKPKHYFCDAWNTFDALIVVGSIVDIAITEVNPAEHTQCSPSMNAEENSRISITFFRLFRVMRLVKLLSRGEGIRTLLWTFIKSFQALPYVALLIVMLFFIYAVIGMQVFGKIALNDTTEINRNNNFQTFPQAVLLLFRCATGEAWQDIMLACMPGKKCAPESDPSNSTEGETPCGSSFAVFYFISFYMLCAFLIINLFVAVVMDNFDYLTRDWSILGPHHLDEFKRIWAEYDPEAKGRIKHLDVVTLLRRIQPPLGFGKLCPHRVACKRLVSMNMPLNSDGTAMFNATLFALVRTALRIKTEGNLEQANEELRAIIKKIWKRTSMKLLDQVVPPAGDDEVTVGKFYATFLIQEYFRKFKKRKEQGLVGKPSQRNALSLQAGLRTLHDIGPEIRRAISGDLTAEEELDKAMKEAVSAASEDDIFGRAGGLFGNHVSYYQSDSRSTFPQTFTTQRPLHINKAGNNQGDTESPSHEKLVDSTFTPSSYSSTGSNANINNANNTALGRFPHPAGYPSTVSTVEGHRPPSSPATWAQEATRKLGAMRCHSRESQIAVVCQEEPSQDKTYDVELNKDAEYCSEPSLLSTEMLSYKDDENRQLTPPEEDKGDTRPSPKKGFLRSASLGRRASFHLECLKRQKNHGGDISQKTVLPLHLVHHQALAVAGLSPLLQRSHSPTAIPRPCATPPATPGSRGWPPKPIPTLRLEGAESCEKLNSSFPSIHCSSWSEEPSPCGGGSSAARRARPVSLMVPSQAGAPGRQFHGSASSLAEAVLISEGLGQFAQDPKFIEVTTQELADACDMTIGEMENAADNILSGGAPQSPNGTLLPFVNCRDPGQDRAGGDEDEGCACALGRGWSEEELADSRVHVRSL
Source text: Pharmacol., 38, 234 (1982). […] Pharmacol., 318, 234 (1982)].

pithed rats = experiment: Anti-hypertensive activity in pithed rats (blood pressure elevated by angiotensin II infusion); format: in vivo, rat; conditions: for bradycardia / diastolic blood pressure, elevated by an infusion of angiotensin II: i.v., result in words

With `COC(=O)C1=C(C)NC(C)=C(C(=O)c2ccco2)C1c1ccccc1[N+](=O)[O-]` (stereo not drawn) [Compound A, 3-(2-furoyl)-5-methoxycarbonyl-2,6-dimethyl-4-(2-nitrophenyl)-1,4-dihydropyridine] the “blood pressure in anesthetized rats” value ([1]; anesthetized rats, i.v., result in words) was “reduced blood pressure in anesthetized rats in a dose-dependent manner”, the “Change in diastolic blood pressure” value ([1]; 10 nmol/kg i.v.) was 86.0 ± 3.3 % control and the “Change in heart rate” value ([1]; 10 nmol/kg i.v.) was 103.5 ± 0.9 % control. For the same compound, the “Change in diastolic blood pressure” value ([1]; 30 nmol/kg i.v.) was 80.2 ± 3.2 % control, the “Change in heart rate” value ([1]; 30 nmol/kg i.v.) was 106.2 ± 2.0 % control and the “Change in diastolic blood pressure” value ([1]; 100 nmol/kg i.v.) was 55.0 ± 2.8 % control. The “Change in heart rate” value ([1]; 100 nmol/kg i.v.) was 107.1 ± 3.6 % control, the “Change in diastolic blood pressure” value ([1]; 300 nmol/kg i.v.) was 54.6 ± 1.9 % control and the “Change in heart rate” value ([1]; 300 nmol/kg i.v.) was 106.7 ± 3.1 % control. The “Change in diastolic blood pressure” value ([1]; 1000 nmol/kg i.v.) was 46.7 ± 1.6 % control, the “Change in heart rate” value ([1]; 1000 nmol/kg i.v.) was 104.0 ± 1.8 % control and the “Change in diastolic blood pressure” value ([1]; 3000 nmol/kg i.v.) was 46.6 ± 1.6 % control. For the same compound, the “Change in heart rate” value ([1]; 3000 nmol/kg i.v.) was 102.2 ± 2.2 % control, the “Change in diastolic blood pressure” value ([1]; 10000 nmol/kg i.v.) was 32.4 ± 2.0 % control and the “Change in heart rate” value ([1]; 10000 nmol/kg i.v.) was 99.9 ± 3.4 % control. For the same compound, the “Fall in mean blood pressure” value ([2]; 100 nmol/kg i.v.) was 4.5 ± 1.5 mm Hg, the “Increase in heart rate” value ([2]; 100 nmol/kg i.v.) was 20.0 ± 3.2 beats/min and the “Fall in mean blood pressure” value ([2]; 300 nmol/kg i.v.) was 20.5 ± 1.5 mm Hg. The “Increase in heart rate” value ([2]; 300 nmol/kg i.v.) was 70.0 ± 4.2 beats/min, the “Fall in mean blood pressure” value ([2]; 1000 nmol/kg i.v.) was 42.5 ± 1.8 mm Hg and the “Increase in heart rate” value ([2]; 1000 nmol/kg i.v.) was 118.0 ± 16.3 beats/min. The “Fall in mean blood pressure” value ([2]; 3000 nmol/kg i.v.) was 56.6 ± 1.4 mm Hg, the “Increase in heart rate” value ([2]; 3000 nmol/kg i.v.) was 136.3 ± 11.1 beats/min and the blood pressure ([2]; i.v., result in words) was “significantly reduced blood pressure in a dose-dependent manner”. The reflex tachycardia ([2]; i.v., result in words) was “produced reflex tachycardia”, the “uptake of 45Ca++ into the tissue” value [3] was “reduced uptake” and the “displacement of concentration-response curves to Ca++” value [4] was “caused a concentration-dependent displacement to the right”. For the same compound, the Kb [4] was 1.78 nM, the “Change in diastolic blood pressure” value (pithed rats; 3 nmol/kg i.v.) was 82.2 ± 5.3 % control and the “Change in heart rate” value (pithed rats; 3 nmol/kg i.v.) was 98.1 ± 0.9 % control. For the same compound, the “Change in diastolic blood pressure” value (pithed rats; 10 nmol/kg i.v.) was 72.3 ± 4.9 % control, the “Change in heart rate” value (pithed rats; 10 nmol/kg i.v.) was 93.7 ± 1.7 % control and the “Change in diastolic blood pressure” value (pithed rats; 30 nmol/kg i.v.) was 62.4 ± 3.5 % control. The “Change in heart rate” value (pithed rats; 30 nmol/kg i.v.) was 90.9 ± 2.5 % control, the “Change in diastolic blood pressure” value (pithed rats; 100 nmol/kg i.v.) was 52.0 ± 3.8 % control and the “Change in heart rate” value (pithed rats; 100 nmol/kg i.v.) was 81.1 ± 3.3 % control. The “Change in diastolic blood pressure” value (pithed rats; 300 nmol/kg i.v.) was 45.0 ± 1.6 % control, the “Change in heart rate” value (pithed rats; 300 nmol/kg i.v.) was 74.2 ± 3.4 % control and the “Change in diastolic blood pressure” value (pithed rats; 1000 nmol/kg i.v.) was 36.4 ± 1.8 % control. The “Change in heart rate” value (pithed rats; 1000 nmol/kg i.v.) was 67.9 ± 3.4 % control, the “Change in diastolic blood pressure” value (pithed rats; 3000 nmol/kg i.v.) was 32.9 ± 1.8 % control and the “Change in heart rate” value (pithed rats; 3000 nmol/kg i.v.) was 64.3 ± 3.4 % control. For the same compound, the bradycardia (pithed rats) was “dose-dependent bradycardia” and the “diastolic blood pressure, elevated by an infusion of angiotensin II” value (pithed rats) was “significantly reduced”.
With `CCOC(=O)C1=C(C)NC(C)=C(C(=O)c2ccco2)C1c1ccccc1[N+](=O)[O-]` (stereo not drawn) [Compound B, 3-(2-furoyl)-5-ethoxycarbonyl-2,6-dimethyl-4-(2-nitrophenyl)-1,4-dihydropyridine] the “displacement of concentration-response curves to Ca++” value [4] was “caused a concentration-dependent displacement to the right”, the Kb [4] was 4.57 nM and the “Change in diastolic blood pressure” value (pithed rats; 10 nmol/kg i.v.) was 80.6 ± 2.8 % control. For the same compound, the “Change in heart rate” value (pithed rats; 10 nmol/kg i.v.) was 94.1 ± 0.5 % control, the “Change in diastolic blood pressure” value (pithed rats; 30 nmol/kg i.v.) was 67.9 ± 3.0 % control and the “Change in heart rate” value (pithed rats; 30 nmol/kg i.v.) was 90.4 ± 1.3 % control. For the same compound, the “Change in diastolic blood pressure” value (pithed rats; 100 nmol/kg i.v.) was 47.7 ± 2.4 % control, the “Change in heart rate” value (pithed rats; 100 nmol/kg i.v.) was 85.7 ± 1.5 % control and the “Change in diastolic blood pressure” value (pithed rats; 300 nmol/kg i.v.) was 45.6 ± 3.9 % control. For the same compound, the “Change in heart rate” value (pithed rats; 300 nmol/kg i.v.) was 84.1 ± 3.4 % control, the “Change in diastolic blood pressure” value (pithed rats; 1000 nmol/kg i.v.) was 39.1 ± 2.1 % control and the “Change in heart rate” value (pithed rats; 1000 nmol/kg i.v.) was 76.6 ± 3.4 % control. The “Change in diastolic blood pressure” value (pithed rats; 3000 nmol/kg i.v.) was 37.1 ± 0.8 % control, the “Change in heart rate” value (pithed rats; 3000 nmol/kg i.v.) was 72.2 ± 3.4 % control and the bradycardia (pithed rats) was “dose-dependent bradycardia”. For the same compound, the “diastolic blood pressure, elevated by an infusion of angiotensin II” value (pithed rats) was “significantly reduced”.
